Experimental data from patent EP4578856A1, “HETEROCYCLIC COMPOUND” (Ubience Inc., priority 2022, dated 2024).

Molecular target: ROCK2 protein (Homo sapiens, UniProt O75116)
Assay: Degradation inducing activity of ROCK2 protein in HUVEC cells, Western blotting (Simple Western JESS)
Format: cell-based
Parameters: endogenous in cells; host or cells: HUVEC (ATCC CRL-1730)
Details: HUVEC, 24 h; for inhibition at 1 µM: degradation rate at 1 µM; for inhibition at 10 µM: degradation rate at 10 µM
Description: In vitro degradation inducing activity of ROCK2 protein of compounds of Examples was evaluated by Western Blotting (WB).
By a test compound, 10 mM DMSO solution was prepared, which was used as a 10 µM test compound solution. Further, the solution was diluted 10-fold with DMSO to prepare a 1 mM solution, which was used as a 1 µM test compound solution.
HUVEC cells (ATCC: CRL-1730, Lot: 70041472) were cultured in F-12K medium supplemented with 10% FBS, 0.1 mg/mL heparin, […] Endothelial Cell Growth Supplement (ECGS, Corning), and 1% Penicillin/Streptomycin. The HUVEC cells seeded in a 24 well plate at 50,000 cells/well/1 mL were cultured for 24 hours, and then 1 µL of DMSO or a test compound solution was added thereto and treatment was performed for 24 hours. Cells were harvested and lysed for 20 minutes on ice using lysis buffer (Cell Signaling Technology, Cat#9803) supplemented with protease inhibitor cocktail (Sigma, Cat#P8340; Roche, Cat#P11873580001), and phosphatase inhibitor cocktail (Sigma, Cat#P5726, P0044). The lysate was sonicated (15 seconds, amplitude 30%, 1 cycle) and then centrifuged at 12500 rpm for 15 minutes at 4°C. The protein concentration was determined by BCA assay kit (Thermo Fisher Scientific, Cat#23225).
The western blotting was performed using Simple Western JESS (protein simple). A cell lysis sample (protein amount; about 1.06 µg) was loaded on a plate of Simple Western JESS, and the expression level of ROCK2 protein was detected using a 12-230 kDa Wes Separation Module (Protein simple, Cat#SM-WO04), an Anti-Rabbit Detection Module for Wes (Protein simple, Cat#DM-001), and a Total Protein Detection Module for Wes (Protein simple, Cat#DM-TP01). As the primary antibody, a material obtained by diluting ROCK2 (D1B1) Rabbit mAb (Cell Signaling Technology, Cat#9029) at 1:10 was used, and as the secondary antibody, a material obtained by diluting HRP-labeled anti-rabbit IgG antibody (Cell Signaling Technology, Cat#7074S) at 1:100 was used. The expression level of the target protein was standardized using the total protein amount loaded as a reference. The standardized expression level data of the control (DMSO) was taken as 100%, and the degradation rate (%) was calculated from the average standardized expression level data of the test compound. All analysis steps, such as data detection and analysis, are fully automated.
With respect to the ROCK2 protein degradation rate of the test compound, the protein degradation rates (%) at the evaluation concentrations were set to A ≥ 75%, 75% > B ≥ 50%, 50% > C ≥ 25%, and D < 25%, and are shown in Table 7.

ROCK2 protein, sequence (O75116 whole entry): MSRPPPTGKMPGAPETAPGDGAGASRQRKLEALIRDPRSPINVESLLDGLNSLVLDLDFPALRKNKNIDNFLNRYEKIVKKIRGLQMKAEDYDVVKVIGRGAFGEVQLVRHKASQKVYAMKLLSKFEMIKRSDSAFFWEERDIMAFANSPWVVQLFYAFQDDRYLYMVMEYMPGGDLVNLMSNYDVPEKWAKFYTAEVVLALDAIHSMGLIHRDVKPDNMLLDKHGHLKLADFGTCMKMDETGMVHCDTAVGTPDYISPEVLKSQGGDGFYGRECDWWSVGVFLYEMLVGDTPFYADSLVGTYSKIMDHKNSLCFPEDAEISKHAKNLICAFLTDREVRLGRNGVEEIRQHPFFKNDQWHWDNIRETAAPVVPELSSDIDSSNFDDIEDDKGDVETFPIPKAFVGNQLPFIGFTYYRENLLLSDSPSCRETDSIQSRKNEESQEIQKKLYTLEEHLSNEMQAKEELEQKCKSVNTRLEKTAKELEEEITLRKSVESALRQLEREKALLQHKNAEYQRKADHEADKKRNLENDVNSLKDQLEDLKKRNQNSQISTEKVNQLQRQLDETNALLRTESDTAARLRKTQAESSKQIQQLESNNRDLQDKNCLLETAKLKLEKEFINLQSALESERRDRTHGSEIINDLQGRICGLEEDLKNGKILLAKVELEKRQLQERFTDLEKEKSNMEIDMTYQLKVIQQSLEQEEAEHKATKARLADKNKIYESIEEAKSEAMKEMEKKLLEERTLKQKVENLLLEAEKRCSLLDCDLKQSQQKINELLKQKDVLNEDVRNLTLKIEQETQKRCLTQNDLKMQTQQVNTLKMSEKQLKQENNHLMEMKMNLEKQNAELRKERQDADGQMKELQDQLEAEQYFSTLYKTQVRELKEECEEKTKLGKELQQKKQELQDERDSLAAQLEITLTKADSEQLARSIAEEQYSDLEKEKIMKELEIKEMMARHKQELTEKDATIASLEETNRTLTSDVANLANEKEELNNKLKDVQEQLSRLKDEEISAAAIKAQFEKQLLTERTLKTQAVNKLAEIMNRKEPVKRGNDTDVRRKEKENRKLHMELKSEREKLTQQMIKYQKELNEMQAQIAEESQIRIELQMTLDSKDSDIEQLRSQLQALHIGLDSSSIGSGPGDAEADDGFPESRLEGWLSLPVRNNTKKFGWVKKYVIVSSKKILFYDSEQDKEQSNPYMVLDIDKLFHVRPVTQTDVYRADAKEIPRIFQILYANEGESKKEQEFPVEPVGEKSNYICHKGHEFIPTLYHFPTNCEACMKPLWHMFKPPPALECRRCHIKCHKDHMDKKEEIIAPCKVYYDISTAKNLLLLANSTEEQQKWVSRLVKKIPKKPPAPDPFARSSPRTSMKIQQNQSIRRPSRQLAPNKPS

Compound | inhibition at 1 µM | inhibition at 10 µM
COC[C@H]1CN[C@H](C)CN1CC(=O)N1CC(C)(C)c2ncc(Cc3cccc(OCCOCCOCCOCCOCCOCCOCCOCCN[C@H](C)c4ccc(C(=O)Nc5ccncc5)cc4)c3)cc21 [Example 49, 4-((R)-26-(3-((1-(2-((2R,5R)-2-(Methoxymethyl)-5-methylpiperazin-1-yl)acetyl)-3,3-dimethyl-2,3-dihydro-1H-pyrrolo[3,2-b]pyridin-6-yl)methyl)phenoxy)-6,9,12,15,18,21,24-heptaoxa-3-azahexacosan-2-yl)-N-(pyridin-4-yl)benzamide] | ≥ 75% | 50 to 75%
COC[C@H]1CN[C@H](C)CN1CC(=O)N1CC(C)(C)c2nc(CN(C)CCOCCOCCOCCOCCOCCOCCNC[C@@H](C(=O)Nc3ccc4cnccc4c3)c3ccccc3)c(Cc3ccc(F)cc3)cc21 [Example 41, (S)-1-(6-(4-Fluorobenzyl)-1-(2-((2R,5R)-2-(methoxymethyl)-5-methylpiperazin-1-yl)acetyl)-3,3-dimethyl-2,3-dihydro-1H-pyrrolo[3,2-b]pyridin-5-yl)-N-(isoquinolin-6-yl)-2-methyl-25-phenyl-5,8,11,14,17,20-hexaoxa-2,23-diazahexacosan-26-amide] | 50 to 75% | ≥ 75%
C[C@@H]1CN(CC(=O)N2CC(C)(C)c3ncc(Cc4ccc(F)cc4)cc32)[C@@H](CN(C)CCOCCOCCOCCOCCOCCOCCOCCNC[C@@H](C(=O)Nc2ccc3cnccc3c2)c2ccccc2)CN1 [Example 21, (S)-1-((2R,5R)-1-(2-(6-(4-Fluorobenzyl)-3,3-dimethyl-2,3-dihydro-1H-pyrrolo[3,2-b]pyridin-1-yl)-2-oxoethyl)-5-methylpiperazin-2-yl)-N-(isoquinolin-6-yl)-2-methyl-28-phenyl-5,8,11,14,17,20,23-heptaoxa-2,26-diazanonacosan-29-amide] | 25 to 50% | 50 to 75%
C[C@@H]1CN(CC(=O)N2CC(C)(C)c3ncc(Cc4ccc(F)cc4)cc32)[C@@H](CN(C)CCOCCNC[C@@H](C(=O)Nc2ccc3cnccc3c2)c2ccccc2)CN1 [Example 15, (S)-3-((2-(2-((((2R,5R)-1-(2-(6-(4-Fluorobenzyl)-3,3-dimethyl-2,3-dihydro-1H-pyrrolo[3,2-b]pyridin-1-yl)-2-oxoethyl)-5-methylpiperazin-2-yl)methyl)(methyl)amino)ethoxy)ethyl)amino)-N-(isoquinolin-6-yl)-2-phenylpropanamide] | < 25% | ≥ 75%
COC[C@H]1CN[C@H](C)CN1CC(=O)N1CC(C)(C)c2nc(CN(C)CCOCCN[C@H](Cc3cccc(F)c3)C(=O)Nc3ccc(-c4ccncc4)cc3)c(Cc3ccc(F)cc3)cc21 [Example 29, (R)-2-((2-(2-(((6-(4-Fluorobenzyl)-1-(2-((2R,5R)-2-(methoxymethyl)-5-methylpiperazin-1-yl)acetyl)-3,3-dimethyl-2,3-dihydro-1H-pyrrolo[3,2-b]pyridin-5-yl)methyl)(methyl)amino)ethoxy)ethyl)amino)-3-(3-fluorophenyl)-N-(4-(pyridin-4-yl)phenyl)propanamide] | 50 to 75% | ≥ 75%
COC[C@H]1CN[C@H](C)CN1CC(=O)N1CC(C)(C)c2ncc(Cc3cccc(OCCOCCOCCOCCOCCOCCOCCOCCNC[C@@H](C(=O)Nc4ccc5cnccc5c4)c4ccccc4)c3)cc21 [Example 63, (S)-N-(Isoquinolin-6-yl)-1-(3-((1-(2-((2R,5R)-2-(methoxymethyl)-5-methylpiperazin-1-yl)acetyl)-3,3-dimethyl-2,3-dihydro-1H-pyrrolo[3,2-b]pyridin-6-yl)methyl)phenoxy)-26-phenyl-3,6,9,12,15,18,21-heptaoxa-24-azaheptacosan-27-amide] | < 25% | 50 to 75%
C[C@@H]1CN(CC(=O)N2CC(C)(C)c3ncc(Cc4ccc(F)cc4)cc32)[C@@H](CN(C)CCOCCN[C@H](Cc2cccc(F)c2)C(=O)Nc2ccc(-c3ccncc3)cc2)CN1 [Example 8, (R)-2-((2-(2-((((2R,5R)-1-(2-(6-(4-Fluorobenzyl)-3,3-dimethyl-2,3-dihydro-1H-pyrrolo[3,2-b]pyridin-1-yl)-2-oxoethyl)-5-methylpiperazin-2-yl)methyl) (methyl)amino)ethoxy)ethyl)amino)-3-(3-fluorophenyl)-N-(4-(pyridin-4-yl)phenyl)propanamide] | 25 to 50% | ≥ 75%
COC[C@H]1CN[C@H](C)CN1CC(=O)N1CC(C)(C)c2ncc(Cc3cccc(OCCOCCN[C@H](Cc4cccc(F)c4)C(=O)Nc4ccc(-c5ccncc5)cc4)c3)cc21 [Example 50, (R)-3-(3-Fluorophenyl)-2-((2-(2-(3-((1-(2-((2R,5R)-2-(methoxymethyl)-5-methylpiperazin-1-yl)acetyl)-3,3-dimethyl-2,3-dihydro-1H-pyrrolo[3,2-b]pyridin-6-yl)methyl)phenoxy)ethoxy)ethyl)amino)-N-(4-(pyridin-4-yl)phenyl)propanamide] | 25 to 50% | ≥ 75%
COC[C@H]1CN[C@H](C)CN1CC(=O)N1CC(C)(C)c2nc(CN(C)CCOCCOCCOCCOCCN[C@H](C)c3ccc(C(=O)Nc4ccncc4)cc3)c(Cc3ccc(F)cc3)cc21 [Example 25, 4-((R)-1-(6-(4-Fluorobenzyl)-1-(2-((2R,5R)-2-(methoxymethyl)-5-methylpiperazin-1-yl)acetyl)-3,3-dimethyl-2,3-dihydro-1H-pyrrolo[3,2-b]pyridin-5-yl)-2-methyl-5,8,11,14-tetraoxa-2,17-diazanonadecan-18-yl)-N-(pyridin-4-yl)benzamide] | ≥ 75% | ≥ 75%
COC[C@H]1CN[C@H](C)CN1CC(=O)N1CC(C)(C)c2ncc(Cc3cccc(OCCOCCOCCOCCN[C@H](Cc4cccc(F)c4)C(=O)Nc4ccc(-c5ccncc5)cc4)c3)cc21 [Example 52, (R)-2-(3-Fluorobenzyl)-14-(3-((1-(2-((2R,5R)-2-(methoxymethyl)-5-methylpiperazin-1-yl)acetyl)-3,3-dimethyl-2,3-dihydro-1H-pyrrolo[3,2-b]pyridin-6-yl)methyl)phenoxy)-N-(4-(pyridin-4-yl)phenyl)-6,9,12-trioxa-3-azatetradecanamide] | 25 to 50% | 50 to 75%
COC[C@H]1CN[C@H](C)CN1CC(=O)N1CC(C)(C)c2ncc(Cc3cccc(OCCOCCOCCOCCOCCOCCNC[C@@H](C(=O)Nc4ccc5cnccc5c4)c4ccccc4)c3)cc21 [Example 61, (S)-N-(Isoquinolin-6-yl)-1-(3-((1-(2-((2R,5R)-2-(methoxymethyl)-5-methylpiperazin-1-yl)acetyl)-3,3-dimethyl-2,3-dihydro-1H-pyrrolo[3,2-b]pyridin-6-yl)methyl)phenoxy)-20-phenyl-3,6,9,12,15-pentaoxa-18-azahenicosan-21-amide] | 50 to 75% | ≥ 75%
COC[C@H]1CN[C@H](C)CN1CC(=O)N1CC(C)(C)c2ncc(Cc3ccccc3OCCOCCOCCOCCOCCN[C@H](C)c3ccc(C(=O)Nc4ccncc4)cc3)cc21 [Example 67, 4-((R)-17-(2-((1-(2-((2R,5R)-2-(Methoxymethyl)-5-methylpiperazin-1-yl)acetyl)-3,3-dimethyl-2,3-dihydro-1H-pyrrolo[3,2-b]pyridin-6-yl)methyl)phenoxy)-6,9,12,15-tetraoxa-3-azaheptadecan-2-yl)-N-(pyridin-4-yl)benzamide] | < 25% | 50 to 75%
C[C@@H]1CN(CC(=O)N2CC(C)(C)c3ncc(Cc4ccc(F)cc4)cc32)[C@@H](CN(C)CCOCCOCCN[C@H](C)c2ccc(C(=O)Nc3ccncc3)cc2)CN1 [Example 2, 4-((R)-1-((2R,5R)-1-(2-(6-(4-Fluorobenzyl)-3,3-dimethyl-2,3-dihydro-1H-pyrrolo[3,2-b]pyridin-1-yl)-2-oxoethyl)-5-methylpiperazin-2-yl)-2-methyl-5,8-dioxa-2,11-diazatridecan-12-yl)-N-(pyridin-4-yl)benzamide] | < 25% | 50 to 75%
